Measured values taken from patent US20260256792A1, “TREATMENT OF CHRONIC SPONTANEOUS URTICARIA BY ADMINISTERING (R)-2-[3-[4-AMINO-3-(2-FLUORO-4-PHENOXY-PHENYL)PYRAZOLO[3,4-D]PYRIMIDIN-1-YL]PIPERIDINE-1-CARBONYL]-4-METHYL-4-[4-(OXETAN-3-YL)PIPERAZIN-1-YL]PENT-2-ENENITRILE” (priority 2023, published 2026).

Tested on: moderate-to-severe chronic spontaneous urticaria (CSU)
Test: Phase 2 CSU study: urticaria control test (UCT)
Type: in vivo, human
Design: key to UCT, Mean / UCT, Median / UCT change from baseline, Mean / UCT change from baseline, Median: UCT total = sum of 4 item scores; low = low disease control
Excerpt: The study comprises a 12 week, randomized, double-blind, placebo-controlled, multi-center, dose-ranging efficacy and safety phase, followed by a 40 week open label extension (OLE) phase (see FIG. 1). The study consists of three phases and an optional OLE phase. […] To this end, the UCT was proposed as a tertiary endpoint in this study. […] The dermatology life quality index (DLQI) was proposed as a tertiary endpoint in this study. […] Low scores indicate high disease activity and low disease control. The UCT total score is calculated by adding all 4 individual item scores. […] The recall period is the previous 4 weeks. Patients were to complete the UCT questionnaire during their site visit.

[1] = 400 mg QPM, Week 8, ITT population
[2] = 400 mg QPM, Week 8, omalizumab-naïve population
[3] = 400 mg QPM, Week 8, prior omalizumab use incl. incomplete responders
[4] = 400 mg QPM, Week 12, ITT population
[5] = 400 mg QPM, Week 12, omalizumab-naïve population
[6] = 400 mg QPM, Week 12, prior omalizumab use incl. incomplete responders
[7] = 400 mg TID, End of study, omalizumab-naïve population
[8] = 400 mg TID, End of study, prior omalizumab use incl. incomplete responders
[9] = 400 mg TID, Week 4, ITT population
[10] = 400 mg TID, Week 4, omalizumab-naïve population
[11] = 400 mg TID, Week 4, prior omalizumab use incl. incomplete responders
[12] = 400 mg TID, Week 8, ITT population
[13] = 400 mg TID, Week 8, omalizumab-naïve population
[14] = 400 mg TID, Week 8, prior omalizumab use incl. incomplete responders
[15] = 400 mg TID, Week 12, ITT population
[16] = 400 mg TID, Week 12, omalizumab-naïve population
[17] = 400 mg TID, Week 12, prior omalizumab use incl. incomplete responders

In the case of CC(C)(C=C(C#N)C(=O)N1CCC[C@@H](n2nc(-c3ccc(Oc4ccccc4)cc3F)c3c(N)ncnc32)C1)N1CCN(C2COC2)CC1 [rilzabrutinib, (R)-2-[3-[4-amino-3-(2-fluoro-4-phenoxy-phenyl)pyrazolo[3,4-d]pyrimidin-1-yl]piperidine-1-carbonyl]-4-methyl-4-[4-(oxetan-3-yl)piperazin-1-yl]pent-2-enenitrile], the “UCT % Change difference for rilzabrutinib vs. placebo LS Mean (95% CI)” value (from here on “UCT % Change difference … (95% CI)”) [1] is reported as −37.84 (−167.44, 91.76) %, the “UCT % Change from baseline LS Mean (SE)” value [1] is reported as 126.71 (44.63) % and the “UCT Change difference for rilzabrutinib vs. placebo LS Mean (95% CI)” value (“UCT Change difference … (95% CI)” below) [1] is reported as −1.21 (−3.16, 0.74). The “UCT Change from baseline LS Mean (SE)” value [1] was 3.16 (0.71), the “UCT Post-baseline Mean (SD)” value [1] was 6.97 (3.84) and the “UCT % Change difference … (95% CI)” value [2] was −48.49 (−177.78, 80.81) %. The “UCT % Change from baseline LS Mean (SE)” value [2] was 121.09 (44.66) %, the “UCT Change difference … (95% CI)” value [2] was −1.49 (−3.43, 0.45) and the “UCT Change from baseline LS Mean (SE)” value [2] was 2.98 (0.71). For the same compound, the “UCT Post-baseline Mean (SD)” value [2] was 6.84 (3.84), the “UCT change from baseline, Mean” value [2] was 3.09 and the “UCT change from baseline, Median” value [2] was 2.00. For the same compound, the “UCT percent change from baseline, Mean” value [2] was 138.85%, the “UCT, Median” value [2] was 7.00 and the “UCT change from baseline, Mean” value [3] was 6.00. For the same compound, the “UCT change from baseline, Median” value [3] was 6.00, the “UCT percent change from baseline, Mean” value [3] was 120.00% and the “UCT percent change from baseline, Median” value [3] was 120.00%. The “UCT % Change difference … (95% CI)” value [4] was −100.02 (−238.68, 38.64) %, the “UCT % Change from baseline LS Mean (SE)” value [4] was 99.76 (47.53) % and the “UCT Change difference … (95% CI)” value [4] was −1.82 (−3.87, 0.23). The “UCT Change from baseline LS Mean (SE)” value [4] was 2.92 (0.76), the “UCT Post-baseline Mean (SD)” value [4] was 6.97 (3.84) and the “UCT % Change difference … (95% CI)” value [5] was −105.95 (−247.17, 35.27) %. For the same compound, the “UCT Change difference … (95% CI)” value [5] was −1.96 (−3.99, 0.08), the “UCT Change from baseline LS Mean (SE)” value [5] was 2.77 (0.75) and the “UCT Post-baseline Mean (SD)” value [5] was 6.88 (3.86). For the same compound, the “UCT change from baseline, Mean” value [5] was 3.13, the “UCT change from baseline, Median” value [5] was 2.00 and the “UCT percent change from baseline, Mean” value [5] was 121.74%. The “UCT percent change from baseline, Median” value [5] was 92.86%, the “UCT, Median” value [5] was 7.00 and the “UCT change from baseline, Mean” value [6] was 5.00. The “UCT change from baseline, Median” value [6] was 5.00, the “UCT percent change from baseline, Mean” value [6] was 100.00% and the “UCT percent change from baseline, Median” value [6] was 100.00%. The UCT over baseline (400 mg TID) was “mild increase”, the “UCT change from baseline, Mean” value [7] was 4.00 and the “UCT change from baseline, Median” value [7] was 4.00. For the same compound, the “UCT percent change from baseline, Mean” value [7] was 41.03%, the “UCT percent change from baseline, Median” value [7] was 41.03% and the “UCT change from baseline, Mean” value [8] was 11.60. The “UCT change from baseline, Median” value [8] was 13.00, the “UCT percent change from baseline, Mean” value [8] was 7.80% and the “UCT percent change from baseline, Median” value [8] was 9.00%. For the same compound, the “UCT, Mean” value [8] was 4.83, the “UCT, Median” value [8] was 4.00 and the “UCT % Change difference … (95% CI)” value [9] was 122.56 (−10.01, 255.13) %. The “UCT % Change from baseline LS Mean (SE)” value [9] was 262.11 (48.72) %, the “UCT Change difference … (95% CI)” value [9] was 2.34 (0.46, 4.22) and the “UCT Change from baseline LS Mean (SE)” value [9] was 5.68 (0.68). The “UCT Post-baseline Mean (SD)” value [9] was 10.03 (4.20), the “UCT % Change difference … (95% CI)” value [10] was 124.43 (−9.74, 258.61) % and the “UCT % Change from baseline LS Mean (SE)” value [10] was 267.24 (49.68) %. The “UCT Change difference … (95% CI)” value [10] was 2.23 (0.33, 4.13), the “UCT Change from baseline LS Mean (SE)” value [10] was 5.47 (0.70) and the “UCT Post-baseline Mean (SD)” value [10] was 9.77 (4.17). The “UCT change from baseline, Mean” value [10] was 5.63, the “UCT change from baseline, Median” value [10] was 6.50 and the “UCT percent change from baseline, Mean” value [10] was 254.30%. For the same compound, the “UCT percent change from baseline, Median” value [10] was 100.00%, the “UCT change from baseline, Mean” value [11] was 7.80 and the “UCT change from baseline, Median” value [11] was 9.00. For the same compound, the “UCT percent change from baseline, Mean” value [11] was 146.88%, the “UCT percent change from baseline, Median” value [11] was 143.75% and the “UCT, Median” value [11] was 13.00. For the same compound, the “UCT % Change difference … (95% CI)” value [12] was 108.30 (−18.30, 234.90) %, the “UCT % Change from baseline LS Mean (SE)” value [12] was 272.85 (43.60) % and the “UCT Change difference … (95% CI)” value [12] was 1.43 (−0.50, 3.37). The “UCT Change from baseline LS Mean (SE)” value [12] was 5.80 (0.69), the “UCT Post-baseline Mean (SD)” value [12] was 10.00 (3.85) and the “UCT % Change difference … (95% CI)” value [13] was 102.55 (−31.38, 236.49) %. For the same compound, the “UCT % Change from baseline LS Mean (SE)” value [13] was 272.13 (49.40) %, the “UCT Change difference … (95% CI)” value [13] was 1.19 (−0.75, 3.12) and the “UCT Change from baseline LS Mean (SE)” value [13] was 5.66 (0.71). The “UCT Post-baseline Mean (SD)” value [13] was 9.80 (3.86), the “UCT change from baseline, Median” value [13] was 6.50 and the “UCT percent change from baseline, Mean” value [13] was 277.48%. For the same compound, the “UCT percent change from baseline, Median” value [13] was 120.83%, the “UCT, Median” value [13] was 9.50 and the “UCT change from baseline, Median” value [14] was 5.00. The “UCT percent change from baseline, Mean” value [14] was 107.33%, the “UCT percent change from baseline, Median” value [14] was 25.00% and the “UCT % Change difference … (95% CI)” value [15] was 122.43 (−16.89, 261.74) %. For the same compound, the “UCT % Change from baseline LS Mean (SE)” value [15] was 322.21 (47.00) %, the “UCT Change difference … (95% CI)” value [15] was 1.80 (−0.20, 3.79) and the “UCT Change from baseline LS Mean (SE)” value [15] was 6.53 (0.70). The “UCT Post-baseline Mean (SD)” value [15] was 10.69 (4.25), the “UCT % Change difference … (95% CI)” value [16] was 131.76 (−18.16, 281.68) % and the “UCT % Change from baseline LS Mean (SE)” value [16] was 329.00 (51.79) %. For the same compound, the “UCT Change difference … (95% CI)” value [16] was 1.58 (−0.47, 3.63), the “UCT Change from baseline LS Mean (SE)” value [16] was 6.31 (0.76) and the “UCT change from baseline, Median” value [16] was 6.00. The “UCT percent change from baseline, Mean” value [16] was 311.71%, the “UCT percent change from baseline, Median” value [16] was 102.86% and the “UCT change from baseline, Mean” value [17] was 8.00. The “UCT change from baseline, Median” value [17] was 9.00, the “UCT percent change from baseline, Mean” value [17] was 156.25% and the “UCT percent change from baseline, Median” value [17] was 162.50%. For the same compound, the “patients achieving a UCT≥12” value (400 mg TID, over time up to Week 12) was > 20%.
